Here are results for two compounds from patent publication US20190298796A1, “Therapeutic Compositions from the Brevinin-1 Family of Peptides and Uses Thereof” (priority 2016, published 2019).

Series [1] deals with Bacillus subtilis MTCC 14416. Format: cell-based. The following applies: lowest concentration killing entire bacteria, 24 hrs.
From the text: (§1) Antimicrobial activity: Broth dilution method [39] was used to assess the antimicrobial activity of the peptides. Bacterial strains used for in vitro antibacterial assay were Staphylococcus aureus (MTCC 9542), Bacillus subtilis (MTCC 14416), Bacillus coagulans (ATCC 7050), Methicillin-resistant Staphylococcus aureus (MRSA) (ATCC 43300), Streptococcus mutans (MTCC 497), Streptococcus gordonii (MTCC 2695), Vibrio cholerae (MCV09), Escherichia coli (ATCC 25922), Vancomycin-resistant enterococcus (VRE) (ATCC 29212) and gram-negative fish pathogens Aeromonas hydrophila (ATCC 7966) and Aeromonas sobria (ATCC 43979). Bacterial cultures were grown in Muller Hinton broth (MHB) (Hi-media) by overnight incubation at 37° C. with constant shaking. Microbial cultures having 10^6 CFU/ml were made from OD600: 0.6 cultures. 400 μM stock solutions of peptides were prepared in autoclaved double distilled water and diluted in MHB to make concentrations ranging from 0.7 to 100 μM. Bacterial inoculum without peptide was used as the negative control.
The test system of another series is gram-negative bacteria. As to the kind of experiment: MIC range over the tested gram-negative bacteria. Format: cell-based.
Series [2] deals with Bacillus coagulans ATCC 7050. The class given is cell-based. The following applies: lowest concentration killing entire bacteria, 24 hrs.
From the text: as §1
The subject of series [3] is Staphylococcus aureus MTCC 9542. Format: cell-based. The conditions noted are these: lowest peptide concentration required to kill entire bacteria, 24 hrs, NA = not active up to the highest concentration tested.
From the text: as §1
The subject of a further series is human erythrocytes. Format: cell-based. The following applies: 60 min, at the peptide's MIC for Staphylococcus aureus MTCC 9542 (MIC in parenthesis). How it is done: Hemolytic Activity: Hemolytic assay was carried out as previously described. Briefly, 10% (v/v) suspensions of fresh human erythrocytes in phosphate buffered saline (pH 7.2) were incubated with different concentrations (100 μM-0.7 μM) of B1/1 COOH & B1/2 COOH, B1/1 CONH2 & B1/2 CONH2 and cyclic B1/1 CONH2 & cyclic B1/2 CONH2 and incubated at 3^7° C. for 60 min. The cells were centrifuged (3000×g) for 5 min, and absorbance of the supernatant was measured at 595 nm. Hemolysis caused by 10% Triton X-100 was taken as positive control. Percentage hemolysis was calculated by measuring the mean amount of hemoglobin released as a result of lysis of erythrocyte from three independent experiments.

Another series relates to VRE ATCC 29212. The following applies: lowest concentration killing entire bacteria, 24 hrs.
The test system of another series is MRSA ATCC 43300. Format: cell-based, Methicillin-resistant Staphylococcus aureus. The following applies: lowest concentration killing entire bacteria, 24 hrs.

≈ marks a conversion by molar mass, not a printed value. Residues, ends and D or L forms follow the SMILES beside them.

From the text for MRSA ATCC 43300: as §1
From the text for VRE ATCC 29212: as §1
From the text for gram-negative bacteria: as §1

As to `CC[C@H](C)[C@H](NC(=O)CNC(=O)[C@@H]1CCCN1C(=O)[C@H](Cc1ccccc1)NC(=O)[C@@H](N)Cc1ccccc1)C(=O)N[C@H](C(=O)N[C@@H](CCCCN)C(=O)N[C@H](C(=O)N[C@@H](C)C(=O)N[C@@H](CO)C(=O)N[C@@H](C)C(=O)N[C@H](C(=O)N[C@@H](CC(C)C)C(=O)N1CCC[C@H]1C(=O)N[C@H](C(=O)N[C@@H](C)C(=O)N[C@H](C(=O)N[C@@H](CS)C(=O)N[C@@H](C)C(=O)N[C@H](C(=O)N[C@H](C(=O)N[C@@H](CCCCN)C(=O)N[C@@H](CCCNC(=N)N)C(=O)N[C@@H](CS)C(=O)O)[C@@H](C)O)[C@@H](C)CC)[C@@H](C)CC)[C@@H](C)O)[C@@H](C)CC)C(C)C)[C@@H](C)CC` [B1/1 COOH] (H-FFPGIIKVASAILPTAICAITKRC-OH; N-terminus assumed), the MIC (usually the least concentration at which growth counts as inhibited) in series [1] was 98 µM (≈ 248 µg/mL); in series [2], 25 µM (≈ 63.4 µg/mL); in series [3] it was 9.5 µM (≈ 24.1 µg/mL); with VRE ATCC 29212 it was 50 µM (≈ 127 µg/mL); against MRSA ATCC 43300 it was 25 µM (≈ 63.4 µg/mL). The “Activity against gram-negative bacteria (MIC range)” value in the series on gram-negative bacteria is reported as “not with gram-negative bacteria”. Further, the “Percentage hemolysis at MIC” value in the series on human erythrocytes amounted to 20%.

For the compound `CC[C@H](C)[C@H](NC(=O)CNC(=O)[C@@H]1CCCN1C(=O)[C@H](Cc1ccccc1)NC(=O)[C@@H](N)Cc1ccccc1)C(=O)N[C@H](C(=O)N[C@@H](CCCCN)C(=O)N[C@H](C(=O)N[C@@H](C)C(=O)NCC(=O)N[C@@H](C)C(=O)N[C@H](C(=O)N[C@@H](CC(C)C)C(=O)N1CCC[C@H]1C(=O)N[C@H](C(=O)N[C@@H](C)C(=O)N[C@H](C(=O)N[C@@H](CS)C(=O)N[C@@H](C)C(=O)N[C@H](C(=O)N[C@H](C(=O)N[C@@H](CCCCN)C(=O)N[C@@H](CCCNC(=N)N)C(=O)N[C@@H](CS)C(=O)O)[C@@H](C)O)[C@@H](C)CC)[C@@H](C)CC)[C@@H](C)O)[C@@H](C)CC)C(C)C)[C@@H](C)CC` [B1/2 COOH] (H-FFPGIIKVAGAILPTAICAITKRC-OH; N-terminus assumed), the minimal inhibitory concentration (MIC) is 67.5 µM (≈ 169 µg/mL) in series [1]; 25 µM (≈ 62.6 µg/mL) in series [2]; 12.5 µM (≈ 31.3 µg/mL) in series [3]; 50 µM (≈ 125 µg/mL) against VRE ATCC 29212; 30 µM (≈ 75.1 µg/mL) with MRSA ATCC 43300. In addition, the “Activity against gram-negative bacteria (MIC range)” value in the series with gram-negative bacteria was “not with gram-negative bacteria”. Besides, the “Percentage hemolysis at MIC” value with human erythrocytes was determined as 25%.
